Patent publication US12612387B2, “RAS inhibitors and methods of using the same” (Jazz Pharmaceuticals Ireland Limited, priority 2020, dated 2026)
One block for each molecule: values may come before it.

How the values were obtained:
[1] = target: T1, K-RAS G12D (Homo sapiens, UniProt P01116, G12D); experiment: Compound depletion assay, K-RAS G12D; type: binding; details: G12D protein 20 μM, compound 8 μM, 25° C.
T1 construct: His tag; purchased Stratech
Outline: (§1)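 His-tagged K-RAS (20 μM) in 20 mM HEPES pH 7.5, 150 mM NaCl, 1 mM MgCl2 incubated with 8 μM compound (final) at 25 °C with agitation. At 0, 30, 180, 360, 1440 min, samples were acid/acetonitrile-quenched and remaining free compound quantified by LC-MS/MS against propranolol, as percent of time zero.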

[2] = target: T2, K-RAS G12C (Homo sapiens, UniProt P01116, G12C); experiment: Compound depletion assay, K-RAS G12C; type: binding; details: G12C protein 20 μM, compound 8 μM, 25° C.
T2 construct: His tag; purchased Stratech
Outline: as §1

T2 sequence (P01116 1-188 isoform P01116-2 G12C): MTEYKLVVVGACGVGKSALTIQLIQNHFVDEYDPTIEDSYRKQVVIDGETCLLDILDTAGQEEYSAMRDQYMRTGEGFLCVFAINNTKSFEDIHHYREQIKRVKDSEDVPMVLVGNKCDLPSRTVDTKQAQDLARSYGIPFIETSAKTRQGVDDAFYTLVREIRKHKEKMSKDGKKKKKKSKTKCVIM
T1 sequence (P01116 1-188 isoform P01116-2 G12D): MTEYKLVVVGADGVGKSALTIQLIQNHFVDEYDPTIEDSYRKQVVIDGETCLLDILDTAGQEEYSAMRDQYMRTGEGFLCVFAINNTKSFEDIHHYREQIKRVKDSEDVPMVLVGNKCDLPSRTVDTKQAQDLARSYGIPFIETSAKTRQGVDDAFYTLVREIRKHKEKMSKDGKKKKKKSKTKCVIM

SMILES: C=CC(=O)N1CCN(c2cc(C(=O)N3CCCc4cccc(C)c43)nc(OC[C@@H]3CCCN3C)n2)CC1 [Example 17, 1-[4-[6-(8-methyl-3,4-dihydro-2H-quinoline-1-carbonyl)-2-[[(2S)-1-methylpyrrolidin-2-yl]methoxy]pyrimidin-4-yl]piperazin-1-yl]prop-2-en-1-one]
3 hr Category (compound remaining at timepoint) [1]: A (≥70% compound remaining at timepoint)
24 hr Category (compound remaining at timepoint) [1]: A (≥70% compound remaining at timepoint)
3 hr Category (compound remaining at timepoint) [2]: A (≥70% compound remaining at timepoint)
24 hr Category (compound remaining at timepoint) [2]: A (≥70% compound remaining at timepoint)

SMILES: C=CC(=O)N1CCN(c2cc(C(=O)Nc3cc(O)cc4ccccc34)nc(NCC3CCCN(C)C3)n2)C[C@@H]1CC#N (stereo partly drawn) [Example 43, 6-[(3S)-3-(cyanomethyl)-4-prop-2-enoyl-piperazin-1-yl]-N-(3-hydroxy-1-naphthyl)-2-[(1-methyl-3-piperidyl)methylamino]pyrimidine-4-carboxamide]
30 min Category (compound remaining at timepoint) [1]: A (≥70% compound remaining at timepoint)
3 hr Category (compound remaining at timepoint) [1]: A (≥70% compound remaining at timepoint)
6 hr Category (compound remaining at timepoint) [1]: A (≥70% compound remaining at timepoint)
30 min Category (compound remaining at timepoint) [2]: B (30%-70% compound remaining at timepoint)
3 hr Category (compound remaining at timepoint) [2]: C (≤30% compound remaining at timepoint)
6 hr Category (compound remaining at timepoint) [2]: C (≤30% compound remaining at timepoint)

SMILES: C=CC(=O)N1CCN(c2cc(C(=O)Nc3cc(O)cc4ccccc34)nc(OC[C@@H]3CCCN3C)n2)CC1 [Example 03, N-(3-hydroxy-1-naphthyl)-2-[[(2S)-1-methylpyrrolidin-2-yl]methoxy]-6-(4-prop-2-enoylpiperazin-1-yl)pyrimidine-4-carboxamide]
3 hr Category (compound remaining at timepoint) [1]: A (≥70% compound remaining at timepoint)
24 hr Category (compound remaining at timepoint) [1]: A (≥70% compound remaining at timepoint)
30 min Category (compound remaining at timepoint) [2]: B (30%-70% compound remaining at timepoint)
3 hr Category (compound remaining at timepoint) [2]: C (≤30% compound remaining at timepoint)
6 hr Category (compound remaining at timepoint) [2]: C (≤30% compound remaining at timepoint)
24 hr Category (compound remaining at timepoint) [2]: C (≤30% compound remaining at timepoint)

SMILES: C=CC(=O)N1CCN(c2cc(C(=O)Nc3cc(O)cc4ccccc34)nc(-c3cccc4cnn(C)c34)n2)C[C@@H]1CC#N [Example 39, 6-[(3S)-3-(cyanomethyl)-4-prop-2-enoyl-piperazin-1-yl]-N-(3-hydroxy-1-naphthyl)-2-(1-methylindazol-7-yl)pyrimidine-4-carboxamide]
30 min Category (compound remaining at timepoint) [1]: A (≥70% compound remaining at timepoint)
3 hr Category (compound remaining at timepoint) [1]: A (≥70% compound remaining at timepoint)
6 hr Category (compound remaining at timepoint) [1]: A (≥70% compound remaining at timepoint)
30 min Category (compound remaining at timepoint) [2]: A (≥70% compound remaining at timepoint)
3 hr Category (compound remaining at timepoint) [2]: B (30%-70% compound remaining at timepoint)
6 hr Category (compound remaining at timepoint) [2]: B (30%-70% compound remaining at timepoint)

SMILES: C=CC(=O)N1CCN(c2cc(C(=O)Nc3cccc4ccccc34)nc(OC[C@@H]3CCCN3C)n2)C[C@@H]1CC#N [Example 02, 6-[(3S)-3-(cyanomethyl)-4-prop-2-enoyl-piperazin-1-yl]-2-[[(2S)-1-methylpyrrolidin-2-yl]methoxy]-N-(1-naphthyl)pyrimidine-4-carboxamide]
3 hr Category (compound remaining at timepoint) [1]: A (≥70% compound remaining at timepoint)
24 hr Category (compound remaining at timepoint) [1]: A (≥70% compound remaining at timepoint)
3 hr Category (compound remaining at timepoint) [2]: B (30%-70% compound remaining at timepoint)
24 hr Category (compound remaining at timepoint) [2]: B (30%-70% compound remaining at timepoint)

More lines, main results first:

30 min Category (compound remaining at timepoint) [1]: A (≥70% compound remaining at timepoint)
3 hr Category (compound remaining at timepoint) [1]: A (≥70% compound remaining at timepoint)
6 hr Category (compound remaining at timepoint) [1]: A (≥70% compound remaining at timepoint)
30 min Category (compound remaining at timepoint) [2]: A (≥70% compound remaining at timepoint)
3 hr Category (compound remaining at timepoint) [2]: A (≥70% compound remaining at timepoint)
6 hr Category (compound remaining at timepoint) [2]: A (≥70% compound remaining at timepoint)
SMILES: C=CC(=O)N1C[C@@H]2C[C@H]1CN2c1cc(C(=O)Nc2cc(O)cc3ccccc23)nc(OC[C@@H]2CCCN2C)n1 [Example 23, N-(3-hydroxy-1-naphthyl)-2-[[(2S)-1-methylpyrrolidin-2-yl]methoxy]-6-[(1S,4S)-2-prop-2-enoyl-2,5-diazabicyclo[2.2.1]heptan-5-yl]pyrimidine-4-carboxamide]

30 min Category (compound remaining at timepoint) [1]: A (≥70% compound remaining at timepoint)
3 hr Category (compound remaining at timepoint) [1]: A (≥70% compound remaining at timepoint)
6 hr Category (compound remaining at timepoint) [1]: A (≥70% compound remaining at timepoint)
30 min Category (compound remaining at timepoint) [2]: C (≤30% compound remaining at timepoint)
3 hr Category (compound remaining at timepoint) [2]: C (≤30% compound remaining at timepoint)
6 hr Category (compound remaining at timepoint) [2]: C (≤30% compound remaining at timepoint)
SMILES: C=CC(=O)N1CCN(c2cc(C(=O)Nc3cc(O)cc4ccccc34)nc(OC[C@@H]3CCCN3C(C)C)n2)C[C@@H]1CC#N [Example 54, 6-[(3S)-3-(cyanomethyl)-4-prop-2-enoyl-piperazin-1-yl]-N-(3-hydroxy-1-naphthyl)-2-[[(2S)-1-isopropylpyrrolidin-2-yl]methoxy]pyrimidine-4-carboxamide]

3 hr Category (compound remaining at timepoint) [1]: A (≥70% compound remaining at timepoint)
24 hr Category (compound remaining at timepoint) [1]: A (≥70% compound remaining at timepoint)
3 hr Category (compound remaining at timepoint) [2]: A (≥70% compound remaining at timepoint)
24 hr Category (compound remaining at timepoint) [2]: A (≥70% compound remaining at timepoint)
SMILES: C=CC(=O)N1CCN(c2cc(C(=O)Nc3cccc4ccccc34)nc(N3CCN(C)CC3)n2)CC1 [Example 20, 2-(4-methylpiperazin-1-yl)-N-(1-naphthyl)-6-(4-prop-2-enoylpiperazin-1-yl)pyrimidine-4-carboxamide]

30 min Category (compound remaining at timepoint) [1]: A (≥70% compound remaining at timepoint)
3 hr Category (compound remaining at timepoint) [1]: A (≥70% compound remaining at timepoint)
6 hr Category (compound remaining at timepoint) [1]: A (≥70% compound remaining at timepoint)
30 min Category (compound remaining at timepoint) [2]: A (≥70% compound remaining at timepoint)
3 hr Category (compound remaining at timepoint) [2]: A (≥70% compound remaining at timepoint)
6 hr Category (compound remaining at timepoint) [2]: A (≥70% compound remaining at timepoint)
SMILES: C=CC(=O)N1CCN(c2cc(C(=O)Nc3cc(O)cc4ccccc34)nc(-c3cccnc3)n2)C[C@@H]1CC#N [Example 25, 6-[(3S)-3-(cyanomethyl)-4-prop-2-enoyl-piperazin-1-yl]-N-(3-hydroxy-1-naphthyl)-2-(3-pyridyl)pyrimidine-4-carboxamide]

30 min Category (compound remaining at timepoint) [1]: A (≥70% compound remaining at timepoint)
3 hr Category (compound remaining at timepoint) [1]: A (≥70% compound remaining at timepoint)
6 hr Category (compound remaining at timepoint) [1]: A (≥70% compound remaining at timepoint)
3 hr Category (compound remaining at timepoint) [2]: C (≤30% compound remaining at timepoint)
6 hr Category (compound remaining at timepoint) [2]: C (≤30% compound remaining at timepoint)
SMILES: C=CC(=O)N1CCN(c2cc(C(=O)Nc3cc(O)cc4ccccc34)nc(N3CCN(CCO)CC3)n2)C[C@@H]1CC#N [Example 37, 6-[(3S)-3-(cyanomethyl)-4-prop-2-enoyl-piperazin-1-yl]-2-[4-(2-hydroxyethyl)piperazin-1-yl]-N-(3-hydroxy-1-naphthyl)pyrimidine-4-carboxamide]
30 min Category (compound remaining at timepoint) [2]: B (30%-70% compound remaining at timepoint)

30 min Category (compound remaining at timepoint) [1]: A (≥70% compound remaining at timepoint)
3 hr Category (compound remaining at timepoint) [1]: A (≥70% compound remaining at timepoint)
6 hr Category (compound remaining at timepoint) [1]: A (≥70% compound remaining at timepoint)
30 min Category (compound remaining at timepoint) [2]: A (≥70% compound remaining at timepoint)
6 hr Category (compound remaining at timepoint) [2]: C (≤30% compound remaining at timepoint)
SMILES: C=CC(=O)N1CCN(c2cc(C(=O)Nc3cc(O)cc4ccccc34)nc(NCCN3CCN(C)CC3)n2)C[C@@H]1CC#N [Example 27, 6-[(3S)-3-(cyanomethyl)-4-prop-2-enoyl-piperazin-1-yl]-N-(3-hydroxy-1-naphthyl)-2-[2-(4-methylpiperazin-1-yl)ethylamino]pyrimidine-4-carboxamide]
3 hr Category (compound remaining at timepoint) [2]: B (30%-70% compound remaining at timepoint)
